In one assay the target is T1, KRAS-WT/SOS1 (Homo sapiens, UniProt Q07889).
T1 sequence (Q07889 1-1333): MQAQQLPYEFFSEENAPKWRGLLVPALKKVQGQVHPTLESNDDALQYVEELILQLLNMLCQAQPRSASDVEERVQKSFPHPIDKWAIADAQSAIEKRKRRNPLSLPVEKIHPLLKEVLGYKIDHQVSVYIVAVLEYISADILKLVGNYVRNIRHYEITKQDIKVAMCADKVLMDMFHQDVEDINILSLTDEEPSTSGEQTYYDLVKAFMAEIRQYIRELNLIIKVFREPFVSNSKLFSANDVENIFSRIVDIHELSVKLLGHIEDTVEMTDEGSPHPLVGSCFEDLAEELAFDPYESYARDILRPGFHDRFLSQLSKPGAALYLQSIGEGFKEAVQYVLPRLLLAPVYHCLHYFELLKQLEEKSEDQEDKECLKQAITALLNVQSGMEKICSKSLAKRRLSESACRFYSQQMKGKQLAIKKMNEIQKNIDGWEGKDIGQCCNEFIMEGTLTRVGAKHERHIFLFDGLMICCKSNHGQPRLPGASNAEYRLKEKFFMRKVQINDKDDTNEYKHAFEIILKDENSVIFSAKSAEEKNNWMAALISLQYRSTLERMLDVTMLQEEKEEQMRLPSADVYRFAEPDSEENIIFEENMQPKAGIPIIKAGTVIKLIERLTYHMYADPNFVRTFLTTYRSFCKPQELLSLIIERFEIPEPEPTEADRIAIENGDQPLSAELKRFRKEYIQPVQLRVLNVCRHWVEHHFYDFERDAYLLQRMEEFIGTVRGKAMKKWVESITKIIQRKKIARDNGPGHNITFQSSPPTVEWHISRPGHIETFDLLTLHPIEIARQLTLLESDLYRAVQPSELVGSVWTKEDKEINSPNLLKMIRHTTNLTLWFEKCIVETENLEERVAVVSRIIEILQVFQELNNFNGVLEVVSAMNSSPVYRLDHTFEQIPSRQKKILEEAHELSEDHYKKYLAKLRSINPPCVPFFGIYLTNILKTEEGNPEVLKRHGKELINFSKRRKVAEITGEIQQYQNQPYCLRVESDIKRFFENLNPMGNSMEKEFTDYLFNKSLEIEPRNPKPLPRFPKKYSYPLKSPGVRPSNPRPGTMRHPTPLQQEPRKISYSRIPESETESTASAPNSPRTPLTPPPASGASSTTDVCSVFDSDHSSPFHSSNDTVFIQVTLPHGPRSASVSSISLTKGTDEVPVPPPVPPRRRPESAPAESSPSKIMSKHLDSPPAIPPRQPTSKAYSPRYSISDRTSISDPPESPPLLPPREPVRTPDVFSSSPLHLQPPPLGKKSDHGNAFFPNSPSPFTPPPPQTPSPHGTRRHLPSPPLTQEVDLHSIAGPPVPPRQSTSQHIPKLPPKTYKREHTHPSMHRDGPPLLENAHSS
As to the kind of experiment: biochemical.

In a further assay the target is T2, KRAS G12D/SOS1 (Homo sapiens, UniProt Q07889).
T2 sequence (Q07889 1-1333): T1 sequence (Q07889 1-1333)
Kind of assay: biochemical.

The IC50 is the concentration at which inhibition is half-maximal. The low end stands for inhibition by little substance, the high end for a need for much substance. For the compound `C[C@@H](NC(=O)c1cn(C2(C)CC2)c(=O)c2c[nH]nc12)c1cccc2c1CCC2(F)F` [Example 4, (R)-N-(1-(1,1-difluoro-2,3-dihydro-1H-inden-4-yl)ethyl)-5-(1-methylcyclopropyl)-4-oxo-4,5-dihydro-2H-pyrazolo[4,3-c]pyridine-7-carboxamide], the concentration for half-maximal inhibition (IC50) on KRAS-WT/SOS1 and against KRAS G12D/SOS1 was less than 100 nM in each case.
Take `C[C@@H](NC(=O)c1cn(C2(C)CC2)c(=O)c2c[nH]nc12)c1cccc(C(F)(F)CO)c1` [Example 5, (R)-N-(1-(3-(1,1-difluoro-2-hydroxyethyl)phenyl)ethyl)-5-(1-methylcyclopropyl)-4-oxo-4,5-dihydro-2H-pyrazolo[4,3-c]pyridine-7-carboxamide]: the IC50 against KRAS-WT/SOS1 and on KRAS G12D/SOS1 was less than 100 nM in each case.
Turning to `Cc1c([C@@H](C)NC(=O)c2cn(C3(C)CC3)c(=O)c3cn[nH]c23)cccc1C(F)(F)F` [Example 6, (R)-N-(1-(2-methyl-3-(trifluoromethyl)phenyl)ethyl)-5-(1-methylcyclopropyl)-4-oxo-4,5-dihydro-1H-pyrazolo[4,3-c]pyridine-7-carboxamide], the IC50 on KRAS-WT/SOS1 was less than 100 nM; at KRAS G12D/SOS1, 100 to 500 nM.
For `C[C@@H](NC(=O)c1cn(C2(C)CC2)c(=O)c2cn[nH]c12)c1cccc(C(C)(F)F)c1F` [Example 7, (R)-N-(1-(3-(1,1-difluoroethyl)-2-fluorophenyl)ethyl)-5-(1-methylcyclopropyl)-4-oxo-4,5-dihydro-1H-pyrazolo[4,3-c]pyridine-7-carboxamide], the IC50 was less than 100 nM at KRAS-WT/SOS1 and 100 to 500 nM against KRAS G12D/SOS1.
As to `CNCc1ccccc1-c1ccc([C@@H](C)NC(=O)c2cn(C3(C)CC3)c(=O)c3cn[nH]c23)s1` [Example 9, (R)-N-(1-(5-(2-((methylamino)methyl)phenyl)thiophen-2-yl)ethyl)-5-(1-methylcyclopropyl)-4-oxo-4,5-dihydro-1H-pyrazolo[4,3-c]pyridine-7-carboxamide], the IC50 at KRAS-WT/SOS1 and against KRAS G12D/SOS1 was less than 100 nM each time.
As for `CC(=O)N1CCC(n2cc(C(=O)N[C@H](C)c3cccc4c3CCC4(F)F)c3n[nH]cc3c2=O)CC1` [Example 10, (R)-5-(1-acetylpiperidin-4-yl)-N-(1-(1,1-difluoro-2,3-dihydro-1H-inden-4-yl)ethyl)-4-oxo-4,5-dihydro-2H-pyrazolo[4,3-c]pyridine-7-carboxamide], the IC50 at KRAS-WT/SOS1 and against KRAS G12D/SOS1 was less than 100 nM in each case.
Consider `C[C@@H](NC(=O)c1cn(C2CC(F)(F)C2)c(=O)c2cn[nH]c12)c1cccc2c1CCC2(F)F` [Example 13, (R)—N-(1-(1,1-difluoro-2,3-dihydro-1H-inden-4-yl)ethyl)-5-(3,3-difluorocyclobutyl)-4-oxo-4,5-dihydro-1H-pyrazolo[4,3-c]pyridine-7-carboxamide], for which the concentration for half-maximal inhibition (IC50) against KRAS-WT/SOS1 and at KRAS G12D/SOS1 was less than 100 nM in each case.
Consider `C[C@@H](NC(=O)c1cn(C2CC(F)(F)C2)c(=O)c2cn[nH]c12)c1cccc(C(F)(F)F)c1` [Example 14, (R)-5-(3,3-difluorocyclobutyl)-4-oxo-N-(1-(3-(trifluoromethyl)phenyl)ethyl)-4,5-dihydro-1H-pyrazolo[4,3-c]pyridine-7-carboxamide], for which the IC50 against KRAS-WT/SOS1 and against KRAS G12D/SOS1 was 100 to 500 nM throughout.
For the compound `CNCc1ccccc1-c1csc([C@@H](C)NC(=O)c2cn(C3CC(F)(F)C3)c(=O)c3cn[nH]c23)c1` [Example 15, 5-(3,3-difluorocyclobutyl)-N-[(1R)-1-(4-{2-[(methylamino)methyl]phenyl}thiophen-2-yl)ethyl]-4-oxo-1H,4H,5H-pyrazolo[4,3-c]pyridine-7-carboxamide], the IC50 on KRAS-WT/SOS1 and on KRAS G12D/SOS1 was less than 100 nM each time.
`COc1c(N2CCOCC2)cc(C(=O)N[C@H](C)c2cccc3c2CCC3(F)F)c2n[nH]cc12` [Example 18, N-[(1R)-1-(1,1-difluoro-2,3-dihydro-1H-inden-4-yl)ethyl]-4-methoxy-5-(morpholin-4-yl)-2H-indazole-7-carboxamide]: the half-maximal inhibitory concentration (IC50) against KRAS-WT/SOS1 and against KRAS G12D/SOS1 was less than 100 nM in each case.
With `COc1c(CN(C)C)cc(C(=O)N[C@H](C)c2cccc3c2CCC3(F)F)c2n[nH]cc12` [Example 19, N-[(1R)-1-(1,1-difluoro-2,3-dihydro-1H-inden-4-yl)ethyl]-5-[(dimethylamino)methyl]-4-methoxy-2H-indazole-7-carboxamide], the half-maximal inhibitory concentration (IC50) against KRAS-WT/SOS1 and against KRAS G12D/SOS1 was 100 to 500 nM throughout.
Regarding `COc1c(CN(C)C)cc(C(=O)N[C@H](C)c2cccc(C(F)(F)CO)c2)c2n[nH]cc12` [Example 20, N-[(1R)-1-[3-(1,1-difluoro-2-hydroxyethyl)phenyl]ethyl]-5-[(dimethylamino)methyl]-4-methoxy-2H-indazole-7-carboxamide], the concentration for half-maximal inhibition (IC50) against KRAS-WT/SOS1 and against KRAS G12D/SOS1 was 100 to 500 nM throughout.
As for `Cc1c[nH]c2c(C(=O)N[C@H](C)c3cccc4c3CCC4(F)F)cn(C3(C)CC3)c(=O)c12` [Example 21, (R)—N-(1-(1,1-difluoro-2,3-dihydro-1H-inden-4-yl)ethyl)-3-methyl-5-(1-methylcyclopropyl)-4-oxo-4,5-dihydro-1H-pyrrolo[3,2-c]pyridine-7-carboxamide], the IC50 against KRAS-WT/SOS1 is less than 100 nM; against KRAS G12D/SOS1, 100 to 500 nM.
Take `COc1c(-c2cnc[nH]2)cc(C(=O)N[C@H](C)c2cccc3c2CCC3(F)F)c2n[nH]cc12` [Example 22, N-[(1R)-1-(1,1-difluoro-2,3-dihydro-1H-inden-4-yl)ethyl]-5-(1H-imidazol-5-yl)-4-methoxy-2H-indazole-7-carboxamide]: the half-inhibitory concentration (IC50) against KRAS-WT/SOS1 and against KRAS G12D/SOS1 was 100 to 500 nM in each case.
Regarding `COc1c(-c2cnc[nH]2)cc(C(=O)N[C@H](C)c2cccc(C(F)(F)CO)c2)c2n[nH]cc12` [Example 23, N-[(1R)-1-[3-(1,1-difluoro-2-hydroxyethyl)phenyl]ethyl]-5-(1H-imidazol-5-yl)-4-methoxy-2H-indazole-7-carboxamide], the IC50 against KRAS-WT/SOS1 and against KRAS G12D/SOS1 was 100 to 500 nM in each case.
`COc1c(C(C)N)cc(C(=O)N[C@H](C)c2cccc3c2CCC3(F)F)c2n[nH]cc12` (stereo partly drawn) [Example 24, 5-(1-aminoethyl)-N—((R)-1-(1,1-difluoro-2,3-dihydro-1H-inden-4-yl)ethyl)-4-methoxy-2H-indazole-7-carboxamide]: the IC50 against KRAS-WT/SOS1 and at KRAS G12D/SOS1 was 100 to 500 nM each time.
As for `COc1c(O[C@H]2CCOC2)cc(C(=O)N[C@H](C)c2cccc(C(F)(F)F)c2)c2n[nH]cc12` [Example 27, 4-methoxy-5-(((S)-tetrahydrofuran-3-yl)oxy)-N—((R)-1-(3-(trifluoromethyl)phenyl)ethyl)-2H-indazole-7-carboxamide], the IC50 on KRAS-WT/SOS1 and at KRAS G12D/SOS1 was 100 to 500 nM throughout.
For the compound `COc1c(O[C@H]2CCOC2)cc(C(=O)N[C@H](C)c2cc(N)cc(C(F)(F)F)c2)c2n[nH]cc12` [Example 28, N-((R)-1-(3-amino-5-(trifluoromethyl)phenyl)ethyl)-4-methoxy-5-(((S)-tetrahydrofuran-3-yl)oxy)-2H-indazole-7-carboxamide], the IC50 against KRAS-WT/SOS1 and at KRAS G12D/SOS1 was 100 to 500 nM in each case.
As to `COc1c(O[C@H]2CCOC2)cc(C(=O)N[C@H](C)c2cccc3c2CCC3(F)F)c2n[nH]cc12` [Example 29, N-((R)-1-(1,1-difluoro-2,3-dihydro-1H-inden-4-yl)ethyl)-4-methoxy-5-(((S)-tetrahydrofuran-3-yl)oxy)-2H-indazole-7-carboxamide], the half-maximal inhibitory concentration (IC50) at KRAS-WT/SOS1 is less than 100 nM; against KRAS G12D/SOS1, 100 to 500 nM.

Values taken from patent US20240109887A1 (Viva Star Biosciences (Suzhou) Co., Ltd., priority 2021, published 2024).
